# Results taken from ChEMBL document CHEMBL1143646, “Synthesis and HIV-1 integrase inhibitory activities of caffeic acid dimers derived from Salvia officinalis” (Bioorg Med Chem Lett, 2005).
# Tests used:
# [1] = Antiviral activity against HIV-1 1 early replicative steps in HeLa-bgal- CD4+ (P4) reporter cells; format: functional; conditions: Human immunodeficiency virus 1
# [2] = target: Human immunodeficiency virus type 1 integrase (Human immunodeficiency virus 1, UniProt Q7ZJM1); experiment: Inhibitory concentration against HIV-1 integrase
# Chain of Human immunodeficiency virus type 1 integrase (Q7ZJM1 whole entry): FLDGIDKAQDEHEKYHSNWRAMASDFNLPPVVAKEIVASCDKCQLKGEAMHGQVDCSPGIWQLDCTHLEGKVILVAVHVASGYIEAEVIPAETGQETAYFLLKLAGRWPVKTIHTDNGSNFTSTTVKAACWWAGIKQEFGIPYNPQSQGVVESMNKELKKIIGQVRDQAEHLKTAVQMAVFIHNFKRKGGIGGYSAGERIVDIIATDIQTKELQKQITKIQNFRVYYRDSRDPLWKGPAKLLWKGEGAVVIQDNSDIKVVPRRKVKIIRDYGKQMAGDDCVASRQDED
SMILES,EC50 [1],IC50 [2]
O=c1oc2cc(O)c(O)cc2cc1O,12 µM,2 µM
O=C(O)/C=C/c1ccc(O)c(Oc2cc3cc(O)c(O)cc3oc2=O)c1,31 µM,1 µM
O=C(O)/C=C/c1ccc(Oc2cc3cc(O)c(O)cc3oc2=O)c(O)c1,37 µM,2 µM
